# In ChEMBL document CHEMBL5647692, “The novel dual PI3K/mTOR inhibitor NVP-BGT226 displays cytotoxic activity in both normoxic and hypoxic hepatocarcinoma cells” (Oncotarget, 2015):
# The source made the active and inactive calls. No cut-off for these calls is given here.
# Experiments:
# Mahlavu [1] = test: Cytotoxicity against human Mahlavu cells assessed as reduction in cell viability at 0.5 uM incubated for 24 hrs in presence of chloroquine under hypoxia condition by MTT assay; format: functional, cell-based
# [2] = Inhibition of PI3K/Akt/mTOR signaling pathway in human SNU-449 cells assessed as reduction in phosphorylation of mTORC1 substrate S6 incubated for 1 hr under normoxia condition by Western blotting analysis; format: cell-based; conditions: dose 0.25-1 µM
# SNU-475 [3] = test: Induction of autophagy in human SNU-475 cells assessed as decreased expression of SQSTM1/p62 level incubated for 24 hrs under hypoxia condition by Western blot analysis; format: functional, cell-based; conditions: dose 0.1-0.5 µM
# [4] = Inhibition of PI3K/Akt/mTOR signaling pathway in human SNU-475 cells assessed as reduction in phosphorylation of Akt at 1 to 10 nM incubated for 1 hr under normoxia condition by Western blotting analysis; format: cell-based; conditions: dose 1-10 nM
# [5] = Inhibition of PI3K/Akt/mTOR signaling pathway in human Mahlavu cells assessed as reduction in phosphorylation of Akt at 1 to 10 nM incubated for 1 hr under hypoxia condition by Western blotting analysis; format: cell-based; conditions: dose 1-10 nM
# [6] = Inhibition of PI3K/Akt/mTOR signaling pathway in human Mahlavu cells assessed as reduction in phosphorylation of GSK3 alpha/beta incubated for 1 hr under normoxia condition by Western blotting analysis; format: cell-based; conditions: dose 0.25-1 µM
# Mahlavu [7] = test: Induction of autophagy in human Mahlavu cells assessed as decreased expression of SQSTM1/p62 level incubated for 24 hrs under hypoxia condition by Western blot analysis; format: functional, cell-based; conditions: dose 0.1-0.5 µM
# [8] = Inhibition of PI3K/Akt/mTOR signaling pathway in human Mahlavu cells assessed as reduction in phosphorylation of mTORC1/2 incubated for 1 hr under normoxia condition by Western blotting analysis; format: cell-based; conditions: dose 0.25-1 µM
# Mahlavu [9] = test: Induction of autophagy in human Mahlavu cells assessed as increased expression of LC3A/B II level incubated for 24 hrs under hypoxia condition by Western blot analysis; format: functional, cell-based; conditions: dose 0.1-0.5 µM
# [10] = Inhibition of PI3K/Akt/mTOR signaling pathway in human HepG2 cells assessed as reduction in phosphorylation of GSK3 alpha/beta incubated for 1 hr under normoxia condition by Western blotting analysis; format: cell-based; conditions: dose 0.25-1 µM
# SNU-449 [11] = test: Induction of apoptosis in human SNU-449 cells assessed as viable cells at IC50 concentration incubated for 24 hrs in presence of Z-VAD-fmk by Annexin-V/7-AAD staining based muse cell analyzer method (reference value: 90.07 %); format: functional
# SNU-449 [12] = test: Cytotoxicity against human SNU-449 cells assessed as reduction in cell viability incubated for 24 hrs under hypoxia condition by MTT assay; format: functional, cell-based
# SNU-475 [13] = test: Cytotoxicity against human SNU-475 cells assessed as reduction in cell viability at 0.5 uM incubated for 24 hrs in presence of chloroquine under hypoxia condition by MTT assay; format: functional, cell-based
# [14] = Inhibition of PI3K/Akt/mTOR signaling pathway in human Hep3B cells assessed as reduction in phosphorylation of mTORC1/2 incubated for 1 hr under normoxia condition by Western blotting analysis; format: cell-based; conditions: dose 0.25-1 µM
# Mahlavu [15] = test: Induction of apoptosis in human Mahlavu cells assessed as cleaved PARP level at 0.5 uM incubated for 24 hrs by Western blotting analysis; format: functional, cell-based
# Mahlavu [16] = test: Induction of apoptosis in human Mahlavu cells assessed as late apoptotic cells at IC50 incubated for 24 hrs in presence of Z-VAD-fmk by Annexin-V/7-AAD staining based muse cell analyzer method (reference value: 2.24 %); format: functional
# [17] = target: Hypoxia-inducible factor 1-alpha (Homo sapiens) (UniProt Q16665); test: Inhibition of HIF-1alpha in human Hep3B cells incubated for 6 hrs under hypoxia condition by Western blot analysis; format: cell-based; conditions: dose 0.01-0.1 µM
# Chain of Hypoxia-inducible factor 1-alpha (Homo sapiens) (Q16665 whole entry, looked up): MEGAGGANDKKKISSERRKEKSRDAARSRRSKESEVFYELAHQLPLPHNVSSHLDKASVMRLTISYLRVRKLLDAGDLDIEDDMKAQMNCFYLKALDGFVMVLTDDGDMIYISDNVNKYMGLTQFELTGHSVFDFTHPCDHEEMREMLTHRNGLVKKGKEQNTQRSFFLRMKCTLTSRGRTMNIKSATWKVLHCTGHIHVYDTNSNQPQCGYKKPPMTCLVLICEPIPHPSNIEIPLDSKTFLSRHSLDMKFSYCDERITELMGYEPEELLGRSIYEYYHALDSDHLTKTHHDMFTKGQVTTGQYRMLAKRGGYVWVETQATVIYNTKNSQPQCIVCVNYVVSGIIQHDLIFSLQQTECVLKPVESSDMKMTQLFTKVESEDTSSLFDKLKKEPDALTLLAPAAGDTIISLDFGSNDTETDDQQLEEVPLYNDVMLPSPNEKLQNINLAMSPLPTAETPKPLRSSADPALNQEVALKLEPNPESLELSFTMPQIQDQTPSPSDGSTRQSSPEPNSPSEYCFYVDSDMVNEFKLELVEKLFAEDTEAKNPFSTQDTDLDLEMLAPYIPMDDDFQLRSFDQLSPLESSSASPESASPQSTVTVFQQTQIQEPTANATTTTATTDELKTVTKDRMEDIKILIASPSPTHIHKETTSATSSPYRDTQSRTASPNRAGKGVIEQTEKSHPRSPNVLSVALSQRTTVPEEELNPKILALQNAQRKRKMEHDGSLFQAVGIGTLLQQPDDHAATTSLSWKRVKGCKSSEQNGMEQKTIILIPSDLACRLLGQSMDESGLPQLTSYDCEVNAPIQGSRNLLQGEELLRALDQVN
# Hep 3B2 [18] = test: Cytotoxicity against human Hep3B cells assessed as reduction in cell viability incubated for 48 hrs by MTT assay; format: functional, cell-based
# Mahlavu [19] = test: Induction of autophagy in human Mahlavu cells assessed as upregulation of LC3A/B II level by Western blot analysis; format: functional, cell-based; conditions: dose 0.1-0.5 µM
# Mahlavu [20] = test: Induction of apoptosis in human Mahlavu cells assessed as cleaved Caspase 7 level at 0.5 uM incubated for 24 hrs by Western blotting analysis; format: functional, cell-based
# SNU-475 [21] = test: Induction of autophagy in human SNU-475 cells assessed as reduction in SQSTM1/p62 level by Western blot analysis; format: functional, cell-based; conditions: dose 0.1-0.5 µM
# Mahlavu [22] = test: Induction of apoptosis in human Mahlavu cells assessed as viable cells at 0.66 uM incubated for 24 hrs by Annexin-V/7-AAD staining based muse cell analyzer method (reference value: 90.52 %); format: functional; conditions: read-out: Activity
# Hep 3B2 [23] = test: Induction of apoptosis in human Hep3B cells assessed as cleaved PARP level at 0.5 uM incubated for 24 hrs by Western blotting analysis; format: functional, cell-based
# Mahlavu [24] = test: Induction of autophagy in human Mahlavu cells assessed as increased expression of LC3 A/B II at 0.5 uM incubated for 24 hrs in presence of chloroquine under hypoxia condition by Western blot analysis; format: functional, cell-based
# SNU-449 [25] = test: Induction of apoptosis in human SNU-449 cells assessed as necrotic cells at IC50 concentration incubated for 24 hrs in presence of Z-VAD-fmk by Annexin-V/7-AAD staining based muse cell analyzer method (reference value: 0.95 %); format: functional
# SNU-475 [26] = test: Induction of autophagy in human SNU-475 cells assessed as increase in lipidation of LC3I to LC3II at 0.5 uM incubated for 24 hrs by Western blot analysis; format: functional, cell-based
# Hep 3B2 [27] = test: Induction of apoptosis in human Hep3B cells assessed as cleaved Caspase 7 level at 0.5 uM incubated for 24 hrs by Western blotting analysis; format: functional, cell-based
# SNU-475 [28] = test: Cytotoxicity against human SNU-475 cells assessed as reduction in cell viability incubated for 24 hrs under hypoxia condition by MTT assay; format: functional, cell-based
# [29] = Inhibition of PI3K/Akt/mTOR signaling pathway in human SNU-475 cells assessed as reduction in phosphorylation of GSK3 alpha/beta incubated for 1 hr under normoxia condition by Western blotting analysis; format: cell-based; conditions: dose 0.25-1 µM
# [30] = Inhibition of PI3K/Akt/mTOR signaling pathway in human Mahlavu cells assessed as reduction in phosphorylation of Akt at 0.001 to 0.01 uM incubated for 1 hr under hypoxia condition by Western blotting analysis; format: cell-based; conditions: dose 0.001-0.01 µM
# [31] = Inhibition of PI3K/Akt/mTOR signaling pathway in human HepG2 cells assessed as reduction in phosphorylation of Akt incubated for 1 hr under normoxia condition by Western blotting analysis; format: cell-based; conditions: dose 0.25-1 µM
# Mahlavu [32] = test: Induction of apoptosis in human Mahlavu cells assessed as cleaved Caspase 9 level at 0.5 uM incubated for 24 hrs by Western blotting analysis; format: functional, cell-based
# [33] = Inhibition of PI3K/Akt/mTOR signaling pathway in human Hep3B cells assessed as reduction in phosphorylation of GSK3 alpha/beta incubated for 1 hr under normoxia condition by Western blotting analysis; format: cell-based; conditions: dose 0.25-1 µM
# Mahlavu [34] = test: Cytotoxicity against human Mahlavu cells assessed as reduction in cell viability incubated for 24 hrs under hypoxia condition by MTT assay; format: functional, cell-based
# Mahlavu [35] = test: Induction of autophagy in human Mahlavu cells assessed as increase in LC3I to LC3II conversion at 0.5 uM incubated for 24 hrs under hypoxia condition by Western blot analysis; format: functional, cell-based
smiles,measurement,setting,value
COc1ccc(-c2ccc3ncc4c(c3c2)n(-c2ccc(N3CCNCC3)c(C(F)(F)F)c2)c(=O)n4C)cn1 [BGT-226 FREE BASE],Activity,Mahlavu [1],Active
same,inhibition,[2],Dose-Dependent Effect
same,Activity,SNU-475 [3],Dose-Dependent Effect
same,inhibition,[4],Active
same,inhibition,[5],Active
same,inhibition,[6],Dose-Dependent Effect
same,Activity,Mahlavu [7],Dose-Dependent Effect
same,inhibition,[8],Dose-Dependent Effect
same,Activity,Mahlavu [9],Dose-Dependent Effect
same,inhibition,[10],Dose-Dependent Effect
same,Activity,SNU-449 [11],83.56%
same,Activity,SNU-449 [12],Active
same,Activity,SNU-475 [13],Active
same,inhibition,[14],Dose-Dependent Effect
same,Activity,Mahlavu [15],Active
same,Activity,Mahlavu [16],5.85%
same,inhibition,[17],Dose-Dependent Effect
same,IC50,Hep 3B2 [18],1220 nM
same,Activity,Mahlavu [19],Dose-Dependent Effect
same,Activity,Mahlavu [20],Active
same,Activity,SNU-475 [21],Dose-Dependent Effect
same,viability at 0.66 µM,Mahlavu [22],50.8%
same,Activity,Hep 3B2 [23],Active
same,Activity,Mahlavu [24],Active
same,Activity,SNU-449 [25],0.45%
same,Activity,SNU-475 [26],Active
same,Activity,Hep 3B2 [27],Active
same,Activity,SNU-475 [28],Active
same,inhibition,[29],Dose-Dependent Effect
same,inhibition,[30],Active
same,inhibition,[31],Dose-Dependent Effect
same,Activity,Mahlavu [32],Active
same,inhibition,[33],Dose-Dependent Effect
same,Activity,Mahlavu [34],Active
same,Activity,Mahlavu [35],Dose-Dependent Effect
